In patent publication US12286435B2, “Compound having benzo seven-membered ring structure, preparation method therefor, and use thereof” (BIONNA (BEIJING) MEDICAL TECHNOLOGY CO., LTD., priority 2019, dated 2025) one finds Ki data, which are given here for 25 compounds.

Where a name gives a salt, the structure may show the parent alone.

One test addresses BRD4 BD1 protein (Homo sapiens (Human), UniProt O60885). Nature of the test: Fluorescence polarization binding affinity (Ki) with BRD4 BD1 protein. The settings on record: fluorescence polarization; Ki calculated from IC50.
The next test has as its target BRD4 BD2 protein (Homo sapiens (Human), UniProt O60885). Nature of the test: Fluorescence polarization binding affinity (Ki) with BRD4 BD2 protein. Conditions: fluorescence polarization; Ki calculated from IC50.

Consider `Cc1nnn2c1-c1ccc(C3CCNCC3)cc1C(Nc1ccc(Cl)cc1)CC2` (centres unmarked) [BF169, N-(4-chlorophenyl)-1-methyl-9-(piperidin-4-yl)-6,7-dihydro-5H-benzo[c][1,2,3]triazolo[1,5-a]azepin-7-amine hydrochloride], for which the Ki – broadly, a dissociation constant, usually derived from enzyme kinetics or from competition with a known ligand – is greater than 20 µM at BRD4 BD1 protein and 0.661 µM at BRD4 BD2 protein.

For the compound `Cc1nnn2c1-c1ccc(C3CCN(C)CC3)cc1C(Nc1ccc(Cl)cc1)CC2` (centres unmarked) [BF178, N-(4-chlorophenyl)-1-methyl-9-(1-methylpiperidin-4-yl)-6,7-dihydro-5H-benzo[c][1,2,3]triazolo[1,5-a]azepin-7-amine], the Ki on BRD4 BD1 protein and on BRD4 BD2 protein was greater than 20 µM in each case.

`Cc1nnn2c1-c1ccc(C3=CCNCC3)cc1C(Nc1cc(F)cc(Cl)c1)CC2` (centres unmarked) [BH06, N-(3-chloro-5-fluorophenyl)-1-methyl-9-(1,2,3,6-tetrahydropyridin-4-yl)-6,7-dihydro-5H-benzo[c][1,2,3]triazolo[1,5-a]azepin-7-amine 2,2,2-trifluoroacetate]: the Ki at BRD4 BD1 protein is 0.596 µM; at BRD4 BD2 protein, 0.0357 µM.

With `COc1cccc(NC2CCn3nnc(C)c3-c3ccc(C4=CCN(C)CC4)cc32)c1` (centres unmarked) [BH23, N-(3-methoxyphenyl)-1-methyl-9-(1-methyl-1,2,3,6-tetrahydropyridin-4-yl)-6,7-dihydro-5H-benzo[c][1,2,3]triazolo[1,5-a]azepin-7-amine 2,2,2-trifluoroacetate], the inhibition constant Ki on BRD4 BD1 protein is 0.751 µM; on BRD4 BD2 protein, 0.0753 µM.

`COc1cccc(NC2CCn3nnc(C)c3-c3ccc(C4=CCN(C(C)=O)CC4)cc32)c1` (centres unmarked) [BH27, 1-(4-(7-((3-methoxyphenyl)amino)-1-methyl-6,7-dihydro-5H-benzo[c][1,2,3]triazolo[1,5-a]azepin-9-yl)-3,6-dihydropyridin-1(2H)-yl)ethan-1-one]: the Ki at BRD4 BD1 protein was 0.0701 µM; on BRD4 BD2 protein, 0.00295 µM.

`Cc1nnn2c1-c1ccc(C3=CCN(C)CC3)cc1C(Oc1cccc(Cl)c1)CC2` (centres unmarked) [BH43, 7-(3-chlorophenoxy)-1-methyl-9-(1-methyl-1,2,3,6-tetrahydropyridin-4-yl)-6,7-dihydro-5H-benzo[c][1,2,3]triazolo[1,5-a]azepine 2,2,2-trifluoroacetate]: the results for the Ki on BRD4 BD1 protein and on BRD4 BD2 protein were greater than 100 µM and 0.316 µM, respectively.

Turning to `Cc1nnn2c1-c1ccc(-c3cnn(C)c3)cc1C(NC1CCCCC1)CC2` (centres unmarked) [BH46, N-cyclohexyl-1-methyl-9-(1-methyl-1H-pyrazol-4-yl)-6,7-dihydro-5H-benzo[c][1,2,3]triazolo[1,5-a]azepin-7-amine 2,2,2-trifluoroacetate], the Ki was 0.689 µM on BRD4 BD1 protein and 0.907 µM on BRD4 BD2 protein.

Turning to `CC(=O)N1CC=C(c2ccc3c(c2)C(Oc2cccc(Cl)c2)CCn2nnc(C)c2-3)CC1` (centres unmarked) [BH81, 1-(4-(7-(3-chlorophenoxy)-1-methyl-6,7-dihydro-5H-benzo[c][1,2,3]triazolo[1,5-a]azepin-9-yl)-3,6-dihydropyridin-1(2H)-yl)ethan-1-one], the inhibition constant (Ki) at BRD4 BD1 protein is 0.869 µM; on BRD4 BD2 protein, 0.0311 µM.

Regarding `CCC(=O)N1CC=C(c2ccc3c(c2)C(Nc2cccc(Cl)c2)CCn2nnc(C)c2-3)CC1` (centres unmarked) [BH86, 1-(4-(7-((3-chlorophenyl)amino)-1-methyl-6,7-dihydro-5H-benzo[c][1,2,3]triazolo[1,5-a]azepin-9-yl)-3,6-dihydropyridin-1(2H)-yl)propan-1-one], the inhibition constant Ki on BRD4 BD1 protein is 0.00951 µM; at BRD4 BD2 protein it was 0.00643 µM.

`CCC(C)N1CC=C(c2ccc3c(c2)C(Nc2cccc(Cl)c2)CCn2nnc(C)c2-3)CC1` (centres unmarked) [BH87, 9-(1-(sec-butyl)-1,2,3,6-tetrahydropyridin-4-yl)-N-(3-chlorophenyl)-1-methyl-6,7-dihydro-5H-benzo[c][1,2,3]triazolo[1,5-a]azepin-7-amine 2,2,2-trifluoroacetate]: the Ki is 1.1 µM on BRD4 BD1 protein and 0.0445 µM on BRD4 BD2 protein.

As for `Cc1nnn2c1-c1ccc(C3=CCN(C4CCCC4)CC3)cc1C(Nc1cccc(Cl)c1)CC2` (centres unmarked) [BH107, N-(3-chlorophenyl)-9-(1-cyclopentyl-1,2,3,6-tetrahydropyridin-4-yl)-1-methyl-6,7-dihydro-5H-benzo[c][1,2,3]triazolo[1,5-a]azepin-7-amine 2,2,2-trifluoroacetate], the Ki at BRD4 BD1 protein was 1.74 µM; on BRD4 BD2 protein it was 0.0176 µM.

In the case of `CCCN1CC=C(c2ccc3c(c2)C(Nc2cccc(Cl)c2)CCn2nnc(C)c2-3)CC1` (centres unmarked) [BH120, N-(3-chlorophenyl)-1-methyl-9-(1-propyl-1,2,3,6-tetrahydropyridin-4-yl)-6,7-dihydro-5H-benzo[c][1,2,3]triazolo[1,5-a]azepin-7-amine 2,2,2-trifluoroacetate], the Ki on BRD4 BD1 protein was 0.583 µM; on BRD4 BD2 protein, 0.0219 µM.

Take `Cc1nnn2c1-c1ccc(C3=CCN(C(=O)C4CC4)CC3)cc1C(Nc1cccc(Cl)c1)CC2` (centres unmarked) [BH123, (4-(7-((3-chlorophenyl)amino)-1-methyl-6,7-dihydro-5H-benzo[c][1,2,3]triazolo[1,5-a]azepin-9-yl)-3,6-dihydropyridin-1 (2H)-yl) (cyclopropyl)methanone]: the results for the Ki at BRD4 BD1 protein and at BRD4 BD2 protein were 0.0467 µM and 0.00764 µM, respectively.

For the compound `Cc1nnn2c1-c1ccc(C3=CCN(C4CCC4)CC3)cc1C(Nc1ccc(F)c(Cl)c1)CC2` (centres unmarked) [BI23, N-(3-chloro-4-fluorophenyl)-9-(1-cyclobutyl-1,2,3,6-tetrahydropyridin-4-yl)-1-methyl-6,7-dihydro-5H-benzo[c][1,2,3]triazolo[1,5-a]azepin-7-amine 2,2,2-trifluoroacetate], the Ki was 1.06 µM at BRD4 BD1 protein and 0.0573 µM on BRD4 BD2 protein.

For `Cc1nnn2c1-c1ccc(C3=CCN(C(C)C)CC3)cc1C(Nc1ccc(F)c(Cl)c1)CC2` (centres unmarked) [BI24, N-(3-chloro-4-fluorophenyl)-9-(1-isopropyl-1,2,3,6-tetrahydropyridin-4-yl)-1-methyl-6,7-dihydro-5H-benzo[c][1,2,3]triazolo[1,5-a]azepin-7-amine 2,2,2-trifluoroacetate], the inhibition constant Ki at BRD4 BD1 protein is 5.41 µM; on BRD4 BD2 protein it was 0.0864 µM.

With `Cc1nnn2c1-c1ccc(C3=CCN(C4CCC4)CC3)cc1C(Nc1cc(Cl)ccc1F)CC2` (centres unmarked) [BI26, N-(5-chloro-2-fluorophenyl)-9-(1-cyclobutyl-1,2,3,6-tetrahydropyridin-4-yl)-1-methyl-6,7-dihydro-5H-benzo[c][1,2,3]triazolo[1,5-a]azepin-7-amine 2,2,2-trifluoroacetate], the Ki was 0.861 µM on BRD4 BD1 protein and 0.0454 µM on BRD4 BD2 protein.

For the compound `Cc1nnn2c1-c1ccc(C3=CCN(C4CCCCC4)CC3)cc1C(Nc1cccc(C#N)c1)CC2` (centres unmarked) [BI29, 3-((9-(1-cyclohexyl-1,2,3,6-tetrahydropyridin-4-yl)-1-methyl-6,7-dihydro-5H-benzo[c][1,2,3]triazolo[1,5-a]azepin-7-yl)amino)benzonitrile 2,2,2-trifluoroacetate], the values for the Ki at BRD4 BD1 protein and on BRD4 BD2 protein were 2.66 µM and 0.168 µM, respectively.

Turning to `Cc1nnn2c1-c1ccc(C3=CCN(C4CCCC4)CC3)cc1C(Nc1cccc(C#N)c1)CC2` (centres unmarked) [BI31, 3-((9-(1-cyclopentyl-1,2,3,6-tetrahydropyridin-4-yl)-1-methyl-6,7-dihydro-5H-benzo[c][1,2,3]triazolo[1,5-a]azepin-7-yl)amino)benzonitrile 2,2,2-trifluoroacetate], the Ki at BRD4 BD1 protein was 2.29 µM; at BRD4 BD2 protein, 0.151 µM.

As for `Cc1nnn2c1-c1ccc(C3=CCN(C(C)C)CC3)cc1C(Nc1cccc(C#N)c1)CC2` (centres unmarked) [BI34, 3-((9-(1-isopropyl-1,2,3,6-tetrahydropyridin-4-yl)-1-methyl-6,7-dihydro-5H-benzo[c][1,2,3]triazolo[1,5-a]azepine7-yl)amino)benzonitrile 2,2,2-trifluoroacetate], the inhibition constant Ki at BRD4 BD1 protein was 4.2 µM; on BRD4 BD2 protein, 0.291 µM.

For `Cc1nnn2c1-c1ccc(C3=CCN(C4CCC4)CC3)cc1C(Nc1cccc(C#N)c1)CC2` (centres unmarked) [BI36, 3-(((9-(1-cyclobutyl-1,2,3,6-tetrahydropyridin-4-yl))-1-methyl-6,7-dihydro-5H-benzo[c][1,2,3]triazolo[1,5-a]azepin-7-yl)amino)benzonitrile 2,2,2-trifluoroacetate], the Ki on BRD4 BD1 protein was 1.85 µM; at BRD4 BD2 protein, 0.0898 µM.

For `CCN1CC=C(c2ccc3c(c2)C(Nc2cccc(C#N)c2)CCn2nnc(C)c2-3)CC1` (centres unmarked) [BI37, 3-((9-(1-ethyl-1,2,3,6-tetrahydropyridin-4-yl)-1-methyl-6,7-dihydro-5H-benzo[c][1,2,3]triazolo[1,5-a]azepin-7-yl)amino)benzonitrile 2,2,2-trifluoroacetate], the results for the Ki on BRD4 BD1 protein and at BRD4 BD2 protein were 2.57 µM and 0.196 µM, respectively.

In the case of `Cc1nnn2c1-c1ccc(C3=CCN(C4CCCC4)CC3)cc1C(Nc1cccc(S(C)(=O)=O)c1)CC2` (centres unmarked) [BI55, 9-(1-cyclopentyl-1,2,3,6-tetrahydropyridin-4-yl)-1-methyl-N-(3-(methylsulfonyl)phenyl)-6,7-dihydro-5H-benzo[c][1,2,3]triazolo[1,5-a]azepin-7-amine 2,2,2-trifluoroacetate], the Ki was 3.1 µM at BRD4 BD1 protein and 0.116 µM on BRD4 BD2 protein.

For `Cc1nnn2c1-c1ccc(C3=CCN(C4CCCCC4)CC3)cc1C(Nc1cccc(S(C)(=O)=O)c1)CC2` (centres unmarked) [BI57, 9-(1-cyclohexyl-1,2,3,6-tetrahydropyridin-4-yl)-1-methyl-N-(3-(methylsulfonyl)phenyl)-6,7-dihydro-5H-benzo[c][1,2,3]triazolo[1,5-a]azepin-7-amine 2,2,2-trifluoroacetate], the Ki at BRD4 BD1 protein is 3.61 µM; at BRD4 BD2 protein it was 0.147 µM.

Take `Cc1nnn2c1-c1ccc(C3=CCN(C(C)C)CC3)cc1C(Nc1cccc(S(C)(=O)=O)c1)CC2` (centres unmarked) [BI60, 9-(1-isopropyl-1,2,3,6-tetrahydropyridin-4-yl)-1-methyl-N-(3-(methylsulfonyl)phenyl)-6,7-dihydro-5H-benzo[c][1,2,3]triazolo[1,5-a]azepin-7-amine 2,2,2-trifluoroacetate]: the Ki was 4.74 µM at BRD4 BD1 protein and 0.307 µM on BRD4 BD2 protein.

Consider `Cc1nnn2c1-c1ccc(C3=CCN(C4CCC4)CC3)cc1C(Nc1cccc(S(C)(=O)=O)c1)CC2` (centres unmarked) [BI61, 9-(1-cyclobutyl-1,2,3,6-tetrahydropyridin-4-yl)-1-methyl-N-(3-(methylsulfonyl)phenyl)-6,7-dihydro-5H-benzo[c][1,2,3]triazolo[1,5-a]azepin-7-amine 2,2,2-trifluoroacetate], for which the Ki was 3.2 µM at BRD4 BD1 protein and 0.148 µM at BRD4 BD2 protein.
